Test results published in PubChem BioAssay (NCI).
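Where inhibition never reached the appropriate level, the endpoint shown equals the highest concentration tested. Otherwise, values were interpolated linearly from a five-concentration, 48-hour dose response in 96-well plates. The concentration for full growth arrest is given as TGI.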

How the values were obtained:
Test in all cases: NCI-60 cell line screen, 48 h
UACC-62 melanoma = tested on: UACC-62 melanoma
OVCAR-4 ovarian = tested on: OVCAR-4 ovarian
OVCAR-5 ovarian = tested on: OVCAR-5 ovarian
HL-60(TB) leukemia = tested on: HL-60(TB) leukemia
M14 melanoma = tested on: M14 melanoma
LOX IMVI melanoma = tested on: LOX IMVI melanoma
KM12 colon = tested on: KM12 colon
786-0 renal = tested on: 786-0 renal
MDA-MB-435 = tested on: MDA-MB-435
SNB-19 CNS = tested on: SNB-19 CNS
CAKI-1 renal = tested on: CAKI-1 renal
SR leukemia = tested on: SR leukemia
CCRF-CEM leukemia = tested on: CCRF-CEM leukemia
SK-MEL-28 melanoma = tested on: SK-MEL-28 melanoma
PC-3 prostate = tested on: PC-3 prostate
NCI-H23 lung = tested on: NCI-H23 lung
RXF 393 renal = tested on: RXF 393 renal
A549 NSCLC = tested on: A549 NSCLC
OVCAR-8 ovarian = tested on: OVCAR-8 ovarian
BT-549 breast = tested on: BT-549 breast

SMILES	TGI (UACC-62 melanoma) [µM]	TGI (OVCAR-4 ovarian) [µM]	TGI (OVCAR-5 ovarian) [µM]	TGI (HL-60(TB) leukemia) [µM]	TGI (M14 melanoma) [µM]	TGI (LOX IMVI melanoma) [µM]	TGI (KM12 colon) [µM]	TGI (786-0 renal) [µM]	TGI (MDA-MB-435) [µM]	TGI (SNB-19 CNS) [µM]	TGI (CAKI-1 renal) [µM]	TGI (SR leukemia) [µM]	TGI (CCRF-CEM leukemia) [µM]	TGI (SK-MEL-28 melanoma) [µM]	TGI (PC-3 prostate) [µM]	TGI (NCI-H23 lung) [µM]	TGI (RXF 393 renal) [µM]	TGI (A549 NSCLC) [µM]	TGI (OVCAR-8 ovarian) [µM]	TGI (BT-549 breast) [µM]
CCN(CC)C(=O)C1=C(C)NC(C)=C(C(=O)N(CC)CC)C1	> 100	> 100	> 100	> 100	> 100	> 100	> 100	> 100	> 100	> 100	> 100	> 100	> 100	> 100	> 100	> 100	> 100	> 100	–	–
N#Cc1ccc(Nc2cnc3cc(N)ccc3n2)cc1	> 100	> 100	> 100	> 100	> 100	> 100	> 100	> 100	–	> 100	> 100	> 100	> 100	> 100	–	> 100	> 100	> 100	> 100	–
COC1=C(C)C(=O)C2C(C1=O)C(c1ccc(OC)c(OC)c1)[C@H]2C (stereo not given in full)	> 100	> 100	> 100	> 100	> 100	> 100	> 100	> 100	–	> 100	> 100	> 100	> 100	> 100	–	> 100	> 100	> 100	> 100	–
C/C(=C/CNc1ncnc2c1ncn2CCC(=O)O)CO	> 100	> 100	> 100	> 100	> 100	> 100	> 100	> 100	> 100	> 100	> 100	> 100	> 100	> 100	> 100	> 100	> 100	> 100	> 100	–
C/C(Sc1ccccc1)=C1/CCCN(Cc2ccccc2)C1	47.6	> 100	67.5	32.6	35	31.8	98.2	50.3	87.7	> 100	> 100	35.7	46.4	83	59.9	79.5	36.3	> 100	> 100	–
O=S1(=O)COc2ccccc2-c2ncncc21	> 100	> 100	> 100	> 100	> 100	> 100	> 100	> 100	–	> 100	> 100	> 100	> 100	> 100	–	> 100	> 100	> 100	> 100	–
O=C1OC(C2Cc3cc4c(cc3C2=O)CCC4)c2ccccc21 (stereo not given)	> 100	> 100	> 100	> 100	> 100	> 100	> 100	> 100	> 100	> 100	> 100	> 100	> 100	> 100	> 100	> 100	–	> 100	> 100	–
CC(=O)Oc1ccn2nc(C)c(Cc3c(C)nn4ccc(OC(C)=O)cc34)c2c1	> 100	> 100	> 100	> 100	> 100	> 100	> 100	> 100	50.4	> 100	> 100	> 100	76.6	> 100	> 10	> 100	–	> 100	> 100	–
COc1ccc(C2Cc3cc(OC)c(OC)c(OC)c3C2=O)cc1 (stereo not given)	> 100	> 100	> 100	–	> 100	> 100	> 100	> 100	–	> 100	> 100	–	> 100	> 100	–	> 100	–	> 100	> 100	–
COc1ccc(NC(=O)CSc2nnc(Cc3ccccc3)o2)cc1	> 100	> 100	> 100	–	> 100	> 100	> 100	> 100	–	> 100	> 100	–	> 100	> 100	–	> 100	> 100	> 100	> 100	–
Cc1cc(=O)cc2sc3cc(Cl)ccc3nc1-2	20.9	> 85.4	43.7	26.2	33.3	24.4	24.5	29	–	61.9	46.7	10.3	37.5	69.2	–	42.8	30	17.8	44.6	–
COC(=O)C(C(=O)C(=O)Nc1c(Cl)cc([N+](=O)[O-])cc1Cl)c1nc2cc(C)c(C)cc2[nH]c1=O (stereo not given)	> 100	> 100	> 100	> 100	> 100	> 100	> 100	> 100	–	> 100	> 100	–	> 100	–	–	> 100	> 100	> 100	> 100	–
C=CCOC1=C2CC[C@H](O)[C@@]2(C)CCC1=O	> 100	> 100	> 100	> 100	> 100	> 100	> 100	> 100	–	> 100	> 100	> 100	> 100	> 100	–	–	> 100	> 100	> 100	–
Cn1c(=O)c2c(ncn2CCCCn2ccnc2[N+](=O)[O-])n(C)c1=O	> 100	> 100	> 100	> 100	> 100	> 100	> 100	> 100	–	> 100	–	> 100	> 100	> 100	–	> 100	> 100	> 100	> 100	–
Cn1ccnc1SC(F)(F)c1nc2ccccc2o1	> 100	> 100	> 100	–	> 100	–	> 100	> 100	> 100	–	> 100	–	> 100	> 100	> 100	> 100	> 100	> 100	> 100	> 100
CCCCCCCCCCCCCCCCc1c(C(=O)OC)[nH]c(=S)[nH]c1=O	> 50	> 50	> 50	> 50	> 50	> 50	> 50	> 50	–	> 50	> 50	32	> 50	> 50	–	> 50	> 50	> 50	> 50	–
Cc1ccc(/C=C/C(=O)c2sc(C(N)=S)nc2C)cc1	> 100	–	> 100	> 100	–	> 100	> 100	> 100	–	–	> 100	–	> 100	> 100	–	> 100	> 100	> 100	> 100	–
CC(=O)N(/N=C\c1ccc([N+](=O)[O-])cc1)c1ccccc1	> 100	> 100	> 100	–	> 100	> 100	> 100	> 100	–	> 100	> 100	–	> 100	> 100	–	> 100	–	> 100	> 100	–
CC(=O)OC[C@@]12CC[C@H]3C(C)(C)CCC[C@]3(C)[C@H]1C[C@@H](C1=CC(=O)O[C@H]1O)O2	4.74	–	37.8	–	7.65	3.42	35.8	3.32	4.6	37.2	5.21	4.08	3.62	4.36	17.4	5.01	–	20.4	13.7	–
CNC(=S)NNC(=O)c1c(C)nc2sccn12	> 100	–	> 100	> 100	–	> 100	> 100	> 100	–	> 100	> 100	> 100	> 100	> 100	–	> 100	> 100	> 100	> 100	–
O=C(CC(=O)C(=O)CC(=O)OCc1ccccc1)OCc1ccccc1	> 100	> 100	> 100	> 100	> 100	–	–	> 100	–	> 100	> 100	> 100	> 100	> 100	–	> 100	> 100	> 100	> 100	–
C/C(=N\N=C(\N)OB(F)F)c1ccccn1	> 100	> 100	> 100	> 100	> 100	> 100	> 100	> 100	> 100	> 100	> 100	> 100	73.1	> 100	–	> 100	42.6	> 100	> 100	> 100
CC(C)CC(=O)N1CCN(C(=O)CC(C)C)c2ccccc21	–	–	> 100	> 100	–	> 100	> 100	> 100	–	> 100	–	–	> 100	> 100	–	> 100	> 100	> 100	> 100	–
O=C1CCCCC1C1(O)C(=O)Nc2cc(F)ccc21 (stereo not given)	> 100	> 100	> 100	> 100	> 100	> 100	> 100	> 100	–	> 100	> 100	–	> 100	> 100	–	> 100	> 100	> 100	> 100	–
Cc1cc(=O)[nH]c(CNC(=O)c2cccc3ccccc23)n1	> 100	> 100	–	> 100	> 100	> 100	–	> 100	–	> 100	> 100	> 100	> 100	> 100	–	> 100	> 100	> 100	> 100	–
CC(=O)NC(ON1C(=O)COc2ccccc21)C(Cl)(Cl)Cl (stereo not given)	> 100	> 100	> 100	> 100	> 100	> 100	> 100	> 100	–	> 100	> 100	> 100	–	> 100	–	> 100	–	> 100	> 100	–
COC(=O)C(CCC1(C)OCCO1)C(C)=O (stereo not given)	–	> 100	> 100	> 100	> 100	> 100	> 100	> 100	–	> 100	–	> 100	> 100	> 100	–	> 100	> 100	> 100	> 100	–
NC(=O)ON=C1CCN(Cc2ccccc2)CC1	> 100	> 100	> 100	> 100	> 100	> 100	> 100	> 100	> 100	> 100	> 100	> 100	> 100	> 100	> 100	> 100	> 100	> 100	> 100	–
CSc1nc2nc(C)c(C)nc2c(=O)[nH]1	> 100	> 100	> 100	> 100	> 100	> 100	> 100	> 100	–	> 100	> 100	> 100	> 100	> 100	–	> 100	> 100	> 100	> 100	–
